Reference: patent US12692253B2, “Antimicrobial compounds and methods” (Curza Global, LLC, priority 2019, dated 2026)

Experiments:
[1] = system: E. coli S30 extract (bacterial protein synthesis); test: E. coli S30 extract coupled transcription-translation luciferase assay (inhibition of bacterial protein synthesis); assay type: biochemical; details: class by IC50 or % inhibition @ 1 μM, read-out: S30 IC50 (μM/% inhib.)
Outline: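 Coupled transcription-translation in E. coli S30 circular-DNA extract expressing luciferase from pBESTluc, with 8-point 2-fold compound dilutions; 1 hour at 37 °C, stopped at 4 °C. Luminescence read; % inhibition versus no-inhibitor wells, no-DNA wells as background.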

[2] = system: S. aureus (Sa); test: Broth microdilution minimum inhibitory concentration (MIC), CLSI; assay type: cell-based; details: Staphylococcus aureus, growth medium supplemented with sodium bicarbonate, read-out: Sa + bicarb MIC
Outline: (§1)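 Modified CLSI method: CAMHB (± bicarbonate 6.25/25 mM or 0-50% human serum), 8-point two-fold series, triplicates, 5×10^4 CFU/well.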

[3] = system: A. baumannn (Ab); test: as above; assay type: cell-based; details: Acinetobacter baumannii, read-out: Ab + bicarb MIC
Outline: as §1

[4] = system: E. coli (Ec); test: as above; assay type: cell-based; details: Escherichia coli, growth medium supplemented with sodium bicarbonate, read-out: E. coli + bicarb MIC
Outline: as §1

[5] = system: P. aeruginosa (Pa); test: as above; assay type: cell-based; details: Pseudomonas aeruginosa, growth medium supplemented with sodium bicarbonate, read-out: Pa MIC + bicarb
Outline: as §1

[6] = system: E. faecalis (Ef); test: as above; assay type: cell-based; details: Enterococcus faecalis, growth medium supplemented with sodium bicarbonate, read-out: Ef + bicarb MIC
Outline: as §1

[7] = target: Rabbit Reticulocyte Lysate (eukaryotic protein synthesis); test: Rabbit reticulocyte lysate luciferase assay (inhibition of eukaryotic protein synthesis); assay type: biochemical; details: class by IC50 or % inhibition @ 1 μM, read-out: Rabbit reticulocyte IC50 (μM/% inhib.)
Outline: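 In vitro translation of luciferase control RNA in nuclease-treated rabbit reticulocyte lysate with amino acid mixture, compounds in 2-fold serial dilution, 90 minutes at 30° C. Luminescence read after luciferase reagent; % inhibition relative to water no-inhibitor controls, with no-RNA background wells.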

For `CCC(Cc1ccc(-n2ccc(NC(=O)N3CCN(C(=O)C(C)(C)N)CC3)nc2=O)cc1)N1C[C@@H]2[C@@H](CN)[C@@H]2C1` (some centres unmarked) [Compound 135], the IC50 [1] was less than 0.5 µM, the MIC [2] was less than 8 µg/mL and the MIC [3] was less than 8 µg/mL. For the same compound, the MIC [4] was less than 8 µg/mL, the MIC [5] was less than 8 µg/mL and the MIC [6] was less than 8 µg/mL. The IC50 [7] was no less than 1 µM.

For `CC(Cc1ccc(-n2ccc(NC(=O)N3CCN(C(=O)C(C)(C)N)CC3)nc2=O)cc1)N1C[C@@H]2[C@H](C1)[C@H]2C(N)=O` (some centres unmarked) [Compound 136], the IC50 [1] was no less than 1 µM, the MIC [2] was greater than 32 µg/mL and the MIC [3] was greater than 32 µg/mL. It also gave an MIC [4] greater than 32 µg/mL, an MIC [5] greater than 32 µg/mL and an MIC [6] greater than 32 µg/mL. The IC50 [7] was no less than 1 µM.

`CC(C)(N)C(=O)N1CCN(C(=O)Nc2ccn(-c3ccc(C(N)C(=O)N4C[C@@H]5[C@@H](CN)[C@@H]5C4)cc3)c(=O)n2)CC1` (some centres unmarked) [Compound 137] showed an IC50 [1] of 0.5 to 1 µM, an MIC [2] greater than 32 µg/mL and an MIC [3] greater than 32 µg/mL. It also gave an MIC [4] greater than 32 µg/mL, an MIC [5] greater than 32 µg/mL and an MIC [6] greater than 32 µg/mL. It also gave an IC50 [7] of no less than 1 µM.

`CNC[C@@H]1[C@H]2CN(C(C)Cc3ccc(-n4ccc(NC(=O)N5CCN(C(=O)C(C)(C)N)CC5)nc4=O)cc3)C[C@@H]12` (some centres unmarked) [Compound 138] showed an IC50 [1] of 0.5 to 1 µM, an MIC [2] of less than 8 µg/mL and an MIC [3] greater than 32 µg/mL. For the same compound, the MIC [4] was less than 8 µg/mL, the MIC [5] was greater than 32 µg/mL and the MIC [6] was 8 to 32 µg/mL. The IC50 [7] was no less than 1 µM.

Compound `CC(Cc1ccc(-n2ccc(NC(=O)N3CCN(C(=O)C(C)(C)N)CC3)nc2=O)cc1F)N1C[C@@H]2[C@@H](CN)[C@@H]2C1` (some centres unmarked) [Compound 139] has an IC50 [1] of less than 0.5 µM, an MIC [2] of less than 8 µg/mL and an MIC [3] of 8 to 32 µg/mL. It also gave an MIC [4] of less than 8 µg/mL, an MIC [5] of 8 to 32 µg/mL and an MIC [6] of less than 8 µg/mL. For the same compound, the IC50 [7] was no less than 1 µM.

`C[C@H](Cc1ccc(-n2ccc(NC(=O)N3CCN(C(=O)C(C)(C)N)CC3)nc2=O)cc1)N1C[C@@H]2[C@@H](CN)[C@@H]2C1` [Compound 140] showed an IC50 [1] of less than 0.5 µM, an MIC [2] of less than 8 µg/mL and an MIC [3] of 8 to 32 µg/mL. The MIC [4] was less than 8 µg/mL, the MIC [5] was 8 to 32 µg/mL and the MIC [6] was less than 8 µg/mL. It also gave an IC50 [7] of no less than 1 µM.

For `C[C@@H](Cc1ccc(-n2ccc(NC(=O)N3CCN(C(=O)C(C)(C)N)CC3)nc2=O)cc1)N1C[C@@H]2[C@@H](CN)[C@@H]2C1` [Compound 141], the IC50 [1] was less than 0.5 µM, the MIC [2] was less than 8 µg/mL and the MIC [3] was 8 to 32 µg/mL. The MIC [4] was less than 8 µg/mL, the MIC [5] was less than 8 µg/mL and the MIC [6] was less than 8 µg/mL. It also gave an IC50 [7] of no less than 1 µM.

Work on `CC(C)(N)C(=O)N1CCN(C(=O)Nc2ccn(-c3cccc(CCN4CC5CC5(CN)C4)c3)c(=O)n2)CC1` (centres unmarked) [Compound 142] yielded an IC50 [1] of 0.5 to 1 µM, an MIC [2] of 8 to 32 µg/mL and an MIC [3] greater than 32 µg/mL. For the same compound, the MIC [4] was less than 8 µg/mL, the MIC [5] was greater than 32 µg/mL and the MIC [6] was 8 to 32 µg/mL. The IC50 [7] was no less than 1 µM.

`CC(C)(N)C(=O)N1CCN(C(=O)Nc2ccn(-c3cccc(CCN4C[C@@H]5[C@@H](CN)[C@@H]5C4)c3)c(=O)n2)CC1` [Compound 143] was tested, and the IC50 [1] was 0.5 to 1 µM, the MIC [2] was 8 to 32 µg/mL and the MIC [3] was greater than 32 µg/mL. The MIC [4] was less than 8 µg/mL, the MIC [5] was greater than 32 µg/mL and the MIC [6] was 8 to 32 µg/mL. For the same compound, the IC50 [7] was no less than 1 µM.

Compound `CC(C)(N)C(=O)N1CCN(C(=O)Nc2ccn(-c3cccc(CCN4C[C@H]5C[C@@]5(N)C4)c3)c(=O)n2)CC1` [Compound 144] has an IC50 [1] of no less than 1 µM, an MIC [2] greater than 32 µg/mL and an MIC [3] greater than 32 µg/mL. For the same compound, the MIC [4] was 8 to 32 µg/mL, the MIC [5] was greater than 32 µg/mL and the MIC [6] was greater than 32 µg/mL. It also gave an IC50 [7] of no less than 1 µM.

`NC[C@@H]1[C@H]2CN(CCc3ccc(-n4ccc(NC(=O)N5CCC6(CCNC6)C5)nc4=O)cc3)C[C@@H]12` (some centres unmarked) [Compound 145] was tested, and the IC50 [1] was no less than 1 µM, the MIC [2] was 8 to 32 µg/mL and the MIC [3] was greater than 32 µg/mL. The MIC [4] was less than 8 µg/mL, the MIC [5] was greater than 32 µg/mL and the MIC [6] was greater than 32 µg/mL. For the same compound, the IC50 [7] was no less than 1 µM.

`NC[C@@H]1[C@H]2CN(CCc3ccc(-n4ccc(NC(=O)N5CCC6(CC5)CC(N)C6)nc4=O)cc3)C[C@@H]12` [Compound 146] showed an IC50 [1] of no less than 1 µM, an MIC [2] of less than 8 µg/mL and an MIC [3] of 8 to 32 µg/mL. The MIC [4] was less than 8 µg/mL, the MIC [5] was 8 to 32 µg/mL and the MIC [6] was less than 8 µg/mL. The IC50 [7] was no less than 1 µM.

Compound `NC[C@@H]1[C@H]2CN(CCc3ccc(-n4ccc(NC(=O)N5CCC6(CC5)CNC6)nc4=O)cc3)C[C@@H]12` [Compound 147] has an IC50 [1] of no less than 1 µM, an MIC [2] of less than 8 µg/mL and an MIC [3] greater than 32 µg/mL. The MIC [4] was less than 8 µg/mL, the MIC [5] was greater than 32 µg/mL and the MIC [6] was greater than 32 µg/mL. It also gave an IC50 [7] of no less than 1 µM.

In the case of `NC[C@@H]1[C@H]2CN(CCc3ccc(-n4ccc(NC(=O)N5CC6(CCC6N)C5)nc4=O)cc3)C[C@@H]12` (some centres unmarked) [Compound 148], the IC50 [1] is reported as no less than 1 µM, the MIC [2] is reported as greater than 32 µg/mL and the MIC [3] is reported as greater than 32 µg/mL. For the same compound, the MIC [4] was greater than 32 µg/mL, the MIC [5] was greater than 32 µg/mL and the MIC [6] was greater than 32 µg/mL. It also gave an IC50 [7] of no less than 1 µM.
